According to patent publication US20150175599A1, “FAAH Inhibitors” (Ironwood Pharmaceuticals, Inc., priority 2010, published 2015):

Experiments:
human FAAH-1 = target: T1, human FAAH-1 (Homo sapiens, UniProt O00519); test: Whole cell anandamide hydrolysis assay (HeLa clone 5c5 transfected with human FAAH-1); type: cell-based; conditions: HeLa clone 5c5 expressing human FAAH-1; read-out: human FAAH whole cell IC50
T1 sequence (O00519 1-579): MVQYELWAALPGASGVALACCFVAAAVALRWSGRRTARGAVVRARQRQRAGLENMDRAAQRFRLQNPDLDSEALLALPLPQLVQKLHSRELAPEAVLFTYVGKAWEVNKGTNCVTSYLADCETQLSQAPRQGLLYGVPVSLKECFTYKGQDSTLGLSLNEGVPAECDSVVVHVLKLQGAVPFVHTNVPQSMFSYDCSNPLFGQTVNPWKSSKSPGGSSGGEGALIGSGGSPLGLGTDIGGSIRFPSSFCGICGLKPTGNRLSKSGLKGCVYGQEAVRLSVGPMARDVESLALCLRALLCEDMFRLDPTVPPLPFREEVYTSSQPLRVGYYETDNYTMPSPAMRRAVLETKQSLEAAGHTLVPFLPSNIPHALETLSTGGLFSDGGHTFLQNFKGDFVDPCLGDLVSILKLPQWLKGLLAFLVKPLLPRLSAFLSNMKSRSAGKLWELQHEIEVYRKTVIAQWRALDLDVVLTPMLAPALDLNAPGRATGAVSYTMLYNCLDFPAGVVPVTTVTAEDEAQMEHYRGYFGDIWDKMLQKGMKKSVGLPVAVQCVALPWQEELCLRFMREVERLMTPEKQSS
How it was run: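 Stable HeLa clone 5c5 expressing human FAAH-1, pre-incubated with compound 10 min at 37° C in DMEM/F12 with 15 mM HEPES pH 7.4 and 0.1% fatty-acid-free BSA. [3H]-anandamide (5 μM stock) added for 15 min; [3H]-ethanolamine separated on charcoal and counted. IC50 from curves constrained to 100% and 0%.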

[1] = Pharmacokinetic study, plasma level 2 hours after oral dosing in rats; type: in vivo
How it was run: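 Rats dosed by oral gavage in 1% DMA/99% Vitamin E TPGS; EDTA plasma taken by retro-orbital bleed 2 h post-dose. Acetonitrile precipitation with internal standard, LC/MS/MS quantitation against plasma standards 0.1–3000 ng/mL.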

COc1cc(NC(=O)C(=O)c2c(C)n(Cc3ccc(Cl)cn3)c3cc(F)c(C)cc23)ccn1 [Compound 90, 2-(1-((5-chloropyridin-2-yl)methyl)-6-fluoro-2,5-dimethyl-1H-indol-3-yl)-N-(2-methoxypyridin-4-yl)-2-oxoacetamide]
IC50 (human FAAH-1): < 100 nM
2 hr plasma level-ng/mL (rat, 10 mg/kg PO, 2 hr) [1]: D (D = greater than 1000 nM)

COc1ccc2c(c1)c(C(=O)C(=O)Nc1ccnc(OC)c1)c(C)n2Cc1ncccn1 [Compound 83, 2-(5-methoxy-2-methyl-1-(pyrimidin-2-ylmethyl)-1H-indol-3-yl)-N-(2-methoxypyridin-4-yl)-2-oxoacetamide]
IC50 (human FAAH-1): 100 to 1000 nM

COc1ccc2c(c1)c(C(=O)C(=O)Nc1ccnc(OC)c1)c(C)n2Cc1cccnc1 [Compound 78, 2-(5-methoxy-2-methyl-1-(pyridin-3-ylmethyl)-1H-indol-3-yl)-N-(2-methoxypyridin-4-yl)-2-oxoacetamide]
IC50 (human FAAH-1): < 100 nM

COc1cc(NC(=O)C(=O)c2c(C)n(Cc3ccc(Cl)cc3)c3cccnc23)ccn1 [Compound 3, 2-(1-(4-chlorobenzyl)-2-methyl-1H-pyrrolo[3,2-b]pyridin-3-yl)-N-(2-methoxypyridin-4-yl)-2-oxoacetamide]
IC50 (human FAAH-1): < 100 nM

COc1ccc2c(c1)c(C(=O)C(=O)Nc1ccnc(OC)c1)c(C)n2Cc1ccc(C)cn1 [Compound 84, 2-(5-methoxy-2-methyl-1-((5-methylpyridin-2-yl)methyl)-1H-indol-3-yl)-N-(2-methoxypyridin-4-yl)-2-oxoacetamide]
IC50 (human FAAH-1): < 100 nM
2 hr plasma level-ng/mL (rat, 10 mg/kg PO, 2 hr) [1]: D (D = greater than 1000 nM)

COc1ccc2c(c1)c(C(=O)C(=O)Nc1ccnc(OC)c1)c(C)n2Cc1ncc(F)cc1F [Compound 81, 2-(1-((3,5-difluoropyridin-2-yl)methyl)-5-methoxy-2-methyl-1H-indol-3-yl)-N-(2-methoxypyridin-4-yl)-2-oxoacetamide]
IC50 (human FAAH-1): < 100 nM
2 hr plasma level-ng/mL (rat, 10 mg/kg PO, 2 hr) [1]: D (D = greater than 1000 nM)

COc1cc(NC(=O)C(=O)c2c(C)n(Cc3ccc(Cl)cc3)c3cc(F)c(C)cc23)ccn1 [Compound 89, 2-(1-(4-chlorobenzyl)-6-fluoro-2,5-dimethyl-1H-indol-3-yl)-N-(2-methoxypyridin-4-yl)-2-oxoacetamide]
IC50 (human FAAH-1): < 100 nM
2 hr plasma level-ng/mL (rat, 10 mg/kg PO, 2 hr) [1]: C (C = between 100 nM and 1000 nM)

COc1ccc2c(c1)c(C(=O)C(=O)Nc1ccnc(OC)c1)c(C)n2Cc1ncc(Cl)cc1Cl [Compound 82, 2-(1-((3,5-dichloropyridin-2-yl)methyl)-5-methoxy-2-methyl-1H-indol-3-yl)-N-(2-methoxypyridin-4-yl)-2-oxoacetamide]
IC50 (human FAAH-1): < 100 nM
2 hr plasma level-ng/mL (rat, 10 mg/kg PO, 2 hr) [1]: D (D = greater than 1000 nM)

COc1ccc2c(c1)c(C(=O)C(=O)Nc1ccnc(OC)c1)c(C)n2Cc1ncc(Cl)cc1F [Compound 87, 2-(1-((5-chloro-3-fluoropyridin-2-yl)methyl)-5-methoxy-2-methyl-1H-indol-3-yl)-N-(2-methoxypyridin-4-yl)-2-oxoacetamide]
IC50 (human FAAH-1): < 100 nM
2 hr plasma level-ng/mL (rat, 10 mg/kg PO, 2 hr) [1]: D (D = greater than 1000 nM)

COc1cc(NC(=O)C(=O)c2c(C)n(Cc3ccc(Cl)cc3Cl)c3cc(F)c(OC)cc23)ccn1 [Compound 92, 2-(1-(2,4-dichlorobenzyl)-6-fluoro-5-methoxy-2-methyl-1H-indol-3-yl)-N-(2-methoxypyridin-4-yl)-2-oxoacetamide]
IC50 (human FAAH-1): < 100 nM

COc1ccc2c(c1)c(C(=O)C(=O)Nc1ccnc(OC)c1)c(C)n2Cc1ccc(Cl)nn1 [Compound 86, 2-(1-((6-chloropyridazin-3-yl)methyl)-5-methoxy-2-methyl-1H-indol-3-yl)-N-(2-methoxypyridin-4-yl)-2-oxoacetamide]
IC50 (human FAAH-1): < 100 nM
2 hr plasma level-ng/mL (rat, 10 mg/kg PO, 2 hr) [1]: D (D = greater than 1000 nM)

COc1cc(NC(=O)C(=O)c2c(C)n(Cc3ccc(Cl)cc3)c3cc(OC)c(Cl)cc23)ccn1 [Compound 80, 2-(5-chloro-1-(4-chlorobenzyl)-6-methoxy-2-methyl-1H-indol-3-yl)-N-(2-methoxypyridin-4-yl)-2-oxoacetamide]
IC50 (human FAAH-1): < 100 nM

COc1ccc2c(c1)c(C(=O)C(=O)Nc1ccnc(OC)c1)c(C)n2Cc1ccc(Cl)cn1 [Compound 79, 2-(1-((5-chloropyridin-2-yl)methyl)-5-methoxy-2-methyl-1H-indol-3-yl)-N-(2-methoxypyridin-4-yl)-2-oxoacetamide]
IC50 (human FAAH-1): < 100 nM
2 hr plasma level-ng/mL (rat, 10 mg/kg PO, 2 hr) [1]: D (D = greater than 1000 nM)

COc1cc(NC(=O)C(=O)c2c(C)n(Cc3ccc(F)cn3)c3ccc(C)cc23)ccn1 [Compound 85, 2-(1-((5-fluoropyridin-2-yl)methyl)-2,5-dimethyl-1H-indol-3-yl)-N-(2-methoxypyridin-4-yl)-2-oxoacetamide]
IC50 (human FAAH-1): < 100 nM
2 hr plasma level-ng/mL (rat, 10 mg/kg PO, 2 hr) [1]: D (D = greater than 1000 nM)

COc1cc(NC(=O)C(=O)c2c(C)n(Cc3ccc(Cl)cc3)c3ccc(C(=O)O)cc23)ccn1 [Compound 4, 1-(4-chlorobenzyl)-3-(2-(2-methoxypyridin-4-ylamino)-2-oxoacetyl)-2-methyl-1H-indole-5-carboxylic acid]
IC50 (human FAAH-1): 1000 to 10000 nM

COc1cc(NC(=O)C(=O)c2c(C)n(Cc3ccc(Cl)cc3)c3cc(Cl)c(C)cc23)ccn1 [Compound 93, 2-(6-chloro-1-(4-chlorobenzyl)-2,5-dimethyl-1H-indol-3-yl)-N-(2-methoxypyridin-4-yl)-2-oxoacetamide]
IC50 (human FAAH-1): < 100 nM
2 hr plasma level-ng/mL (rat, 10 mg/kg PO, 2 hr) [1]: C (C = between 100 nM and 1000 nM)

COc1cc(NC(=O)C(=O)c2c(C)n(Cc3ccc(Cl)cc3F)c3cc(F)c(OC)cc23)ccn1 [Compound 91, 2-(1-(4-chloro-2-fluorobenzyl)-6-fluoro-5-methoxy-2-methyl-1H-indol-3-yl)-N-(2-methoxypyridin-4-yl)-2-oxoacetamide]
IC50 (human FAAH-1): < 100 nM

COc1cc(NC(=O)C(=O)c2c(C)n(Cc3ccc(Cl)cn3)c3cc(Cl)c(C)cc23)ccn1 [Compound 94, 2-(6-chloro-1-((5-chloropyridin-2-yl)methyl)-2,5-dimethyl-1H-indol-3-yl)-N-(2-methoxypyridin-4-yl)-2-oxoacetamide]
IC50 (human FAAH-1): < 100 nM
2 hr plasma level-ng/mL (rat, 10 mg/kg PO, 2 hr) [1]: D (D = greater than 1000 nM)
